Measured values as given in ChEMBL document CHEMBL4334512, “Rationally Designed, Conformationally Constrained Inverse Agonists of RORγt-Identification of a Potent, Selective Series with Biologic-Like in Vivo Efficacy” (J Med Chem, 2019).

Tests used:
[1] = Half life in human liver microsomes; type: ADME, Microsome
[2] = Half life in rat liver microsomes; type: ADME, Microsome
[3] = Half life in mouse liver microsomes; type: ADME, Microsome
[4] = Unbound fraction in human serum; type: ADME, cell-free
[5] = biological target: T1, Nuclear receptor subfamily 1 group I member 2 (Homo sapiens, UniProt O75469); assay: Activity at PXR (unknown origin)
T1 sequence (O75469 whole entry): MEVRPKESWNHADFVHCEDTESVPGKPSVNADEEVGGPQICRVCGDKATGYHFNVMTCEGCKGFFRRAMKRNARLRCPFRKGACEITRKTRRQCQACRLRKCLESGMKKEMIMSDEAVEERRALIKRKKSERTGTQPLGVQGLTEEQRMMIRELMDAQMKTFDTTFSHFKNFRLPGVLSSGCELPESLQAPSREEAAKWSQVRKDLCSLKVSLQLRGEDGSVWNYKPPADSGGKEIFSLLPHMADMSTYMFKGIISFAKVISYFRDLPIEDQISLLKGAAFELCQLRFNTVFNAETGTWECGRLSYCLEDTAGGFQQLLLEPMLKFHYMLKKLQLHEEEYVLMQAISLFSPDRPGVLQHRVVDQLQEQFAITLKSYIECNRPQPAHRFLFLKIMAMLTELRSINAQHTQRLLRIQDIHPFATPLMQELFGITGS

[6] = biological target: T2, Nuclear receptor ROR-alpha (Homo sapiens, UniProt P35398); assay: Activity at RORalpha (unknown origin)
T2 sequence (P35398 whole entry): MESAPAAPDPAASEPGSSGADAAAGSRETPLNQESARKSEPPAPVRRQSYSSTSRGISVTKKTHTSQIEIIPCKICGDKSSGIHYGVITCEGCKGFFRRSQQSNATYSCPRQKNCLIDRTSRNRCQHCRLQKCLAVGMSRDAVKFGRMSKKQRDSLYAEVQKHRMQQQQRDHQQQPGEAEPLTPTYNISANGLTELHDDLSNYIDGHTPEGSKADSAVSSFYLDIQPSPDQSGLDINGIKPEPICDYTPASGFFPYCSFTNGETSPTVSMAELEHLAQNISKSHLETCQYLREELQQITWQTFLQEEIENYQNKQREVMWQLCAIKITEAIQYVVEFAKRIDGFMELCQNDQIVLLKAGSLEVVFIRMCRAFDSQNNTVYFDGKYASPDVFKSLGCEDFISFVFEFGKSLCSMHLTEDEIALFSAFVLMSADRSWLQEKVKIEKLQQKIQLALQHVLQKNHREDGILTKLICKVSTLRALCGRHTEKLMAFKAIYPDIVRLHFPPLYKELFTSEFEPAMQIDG

[7] = biological target: T3, Nuclear receptor ROR-beta (Homo sapiens, UniProt Q92753); assay: Activity at RORbeta (unknown origin)
T3 sequence (Q92753 whole entry): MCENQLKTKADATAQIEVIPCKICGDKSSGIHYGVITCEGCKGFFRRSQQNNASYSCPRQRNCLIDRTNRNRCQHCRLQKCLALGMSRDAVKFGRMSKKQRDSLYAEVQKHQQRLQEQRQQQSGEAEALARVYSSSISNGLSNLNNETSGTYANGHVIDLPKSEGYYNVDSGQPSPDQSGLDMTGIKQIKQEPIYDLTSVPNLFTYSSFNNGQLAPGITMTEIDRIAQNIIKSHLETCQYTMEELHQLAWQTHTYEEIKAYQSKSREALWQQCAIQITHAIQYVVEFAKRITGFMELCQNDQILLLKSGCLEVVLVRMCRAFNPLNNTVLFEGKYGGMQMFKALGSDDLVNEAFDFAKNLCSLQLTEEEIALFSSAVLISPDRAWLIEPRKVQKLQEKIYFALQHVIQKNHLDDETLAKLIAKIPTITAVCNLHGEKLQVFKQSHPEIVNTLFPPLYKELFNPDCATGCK

[8] = biological target: T4, Oxysterols receptor LXR-alpha (Homo sapiens, UniProt Q13133); assay: Activity at LXRalpha (unknown origin)
T4 sequence (Q13133 whole entry): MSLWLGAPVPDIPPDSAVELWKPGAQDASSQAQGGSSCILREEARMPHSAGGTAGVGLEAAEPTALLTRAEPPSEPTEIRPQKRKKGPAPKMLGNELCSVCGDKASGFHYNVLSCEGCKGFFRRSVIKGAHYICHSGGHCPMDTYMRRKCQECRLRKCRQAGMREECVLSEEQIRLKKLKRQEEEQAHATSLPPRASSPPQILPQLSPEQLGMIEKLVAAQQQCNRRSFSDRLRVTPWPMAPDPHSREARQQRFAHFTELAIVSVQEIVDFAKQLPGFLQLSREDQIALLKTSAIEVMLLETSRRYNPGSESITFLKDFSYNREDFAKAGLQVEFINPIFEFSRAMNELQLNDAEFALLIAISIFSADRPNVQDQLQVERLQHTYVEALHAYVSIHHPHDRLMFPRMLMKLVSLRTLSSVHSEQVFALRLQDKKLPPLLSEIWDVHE

[9] = biological target: T5, Oxysterols receptor LXR-beta (Homo sapiens, UniProt P55055); assay: Activity at LXRbeta (unknown origin)
T5 sequence (P55055 whole entry): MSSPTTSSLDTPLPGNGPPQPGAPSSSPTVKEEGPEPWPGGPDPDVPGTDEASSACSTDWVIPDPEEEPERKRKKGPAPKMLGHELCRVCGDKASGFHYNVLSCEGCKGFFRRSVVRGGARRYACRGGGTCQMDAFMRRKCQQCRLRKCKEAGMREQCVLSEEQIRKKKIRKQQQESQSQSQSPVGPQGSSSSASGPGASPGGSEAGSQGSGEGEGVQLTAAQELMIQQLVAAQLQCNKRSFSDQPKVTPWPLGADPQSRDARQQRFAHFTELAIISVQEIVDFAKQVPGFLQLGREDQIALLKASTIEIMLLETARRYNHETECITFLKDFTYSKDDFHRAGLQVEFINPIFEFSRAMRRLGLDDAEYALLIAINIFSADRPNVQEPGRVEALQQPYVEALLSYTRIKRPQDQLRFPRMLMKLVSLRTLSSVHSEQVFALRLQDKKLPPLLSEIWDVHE

[10] = Cmax in Balb/c mouse at 10 mg/kg, po; type: ADME, organism-based; set-up: dose 10 mg/kg, route oral; conditions: in vivo
[11] = Drug level in Balb/c mouse at 10 mg/kg, po after 24 hrs; type: ADME, organism-based; conditions: in vivo, read-out: Drug uptake

| Structure (SMILES) | half-life [1] [h] | half-life [2] [h] | half-life [3] [h] | fraction unbound [4] | IC50 [5] [µM] | IC50 [6] [µM] | IC50 [7] [µM] | IC50 [8] [µM] | IC50 [9] [µM] | Cmax [10] [nM] | concentration at 24 h [11] [nM] |
| --- | --- | --- | --- | --- | --- | --- | --- | --- | --- | --- | --- |
| O=C(O)[C@H]1CC[C@H](C(=O)N2CC[C@@]3(S(=O)(=O)c4ccc(F)cc4)c4ccc(C(F)(C(F)(F)F)C(F)(F)F)cc4NC[C@@H]23)CC1 | > 2 | > 2 | > 2 | 0.014 | > 40 | > 10 | > 10 | > 10 | > 10 | – | – |
| O=C(O)[C@H]1CC[C@](O)(C(=O)N2CC[C@@]3(S(=O)(=O)c4ccc(F)cc4)c4ccc(C(F)(C(F)(F)F)C(F)(F)F)cc4CC[C@@H]23)CC1 | 1.65 | > 2 | > 2 | – | > 40 | > 10 | > 10 | > 10 | > 10 | 2500 | 260 |
| O=C(C1CCS(=O)(=O)CC1)N1CC[C@@]2(S(=O)(=O)c3ccc(F)cc3)c3ccc(C(F)(C(F)(F)F)C(F)(F)F)cc3CC[C@@H]12 | > 2 | 1.1 | > 2 | – | > 40 | > 10 | > 10 | > 10 | > 10 | – | – |
| O=C(O)[C@H]1CC[C@H](C(=O)N2CC[C@@]3(S(=O)(=O)c4cccc(F)c4)c4ccc(C(F)(C(F)(F)F)C(F)(F)F)cc4CC[C@@H]23)CC1 | 1.83 | > 2 | 1.65 | – | > 40 | > 10 | > 10 | > 10 | > 10 | – | – |
| O=C(O)[C@H]1CC[C@@H](C(=O)N2CC[C@@]3(S(=O)(=O)c4ccc(F)cc4)c4ccc(C(F)(C(F)(F)F)C(F)(F)F)cc4CC[C@@H]23)CC1 | – | – | – | – | > 40 | > 10 | > 10 | > 10 | > 10 | – | – |
| Cc1cccc(S(=O)(=O)[C@@]23CCN(C(=O)[C@H]4CC[C@H](C(=O)O)CC4)[C@@H]2CCc2cc(C(F)(C(F)(F)F)C(F)(F)F)ccc23)c1 | > 2 | 0.417 | > 2 | – | > 40 | > 10 | > 10 | > 10 | > 10 | – | – |
| O=C(O)[C@H]1CC[C@H](C(=O)N2CC[C@@]3(S(=O)(=O)Cc4ccccc4)c4ccc(C(F)(C(F)(F)F)C(F)(F)F)cc4CC[C@@H]23)CC1 | – | – | – | – | > 40 | > 10 | > 10 | > 10 | > 10 | – | – |
| C[C@]1(C(=O)N2CC[C@@]3(S(=O)(=O)c4ccc(F)cc4)c4ccc(C(F)(C(F)(F)F)C(F)(F)F)cc4CC[C@@H]23)CC[C@H](C(=O)O)CC1 | 1.82 | 1.78 | 1.4 | – | > 40 | > 10 | > 10 | > 10 | > 10 | – | – |
| CCCN1C[C@H]2N(C(=O)[C@H]3CC[C@H](C(=O)O)CC3)CC[C@@]2(S(=O)(=O)c2ccc(F)cc2)c2ccc(C(F)(C(F)(F)F)C(F)(F)F)cc21 | 1.53 | 1.77 | > 2 | 0.002 | > 40 | > 10 | > 10 | > 10 | > 10 | – | – |
| O=C(O)[C@H]1CC[C@H](C(=O)N2CC[C@@]3(S(=O)(=O)c4ccc(F)cc4)c4ccc(C(F)(C(F)(F)F)C(F)(F)F)cc4OC[C@@H]23)CC1 | > 2 | > 2 | > 2 | 0.003 | > 40 | > 10 | > 10 | > 10 | > 10 | – | – |
| C[C@]1(C(=O)O)CC[C@H](C(=O)N2CC[C@@]3(S(=O)(=O)c4ccc(F)cc4)c4ccc(C(F)(C(F)(F)F)C(F)(F)F)cc4CC[C@@H]23)CC1 | > 2 | 1.73 | > 2 | – | > 40 | > 10 | > 10 | > 10 | > 10 | – | – |
| O=C(N1CC[C@@]2(S(=O)(=O)c3ccc(F)cc3)c3ccc(C(F)(C(F)(F)F)C(F)(F)F)cc3OC[C@@H]12)C1(O)CCS(=O)(=O)CC1 | > 2 | 1.58 | > 2 | – | > 40 | > 10 | > 10 | > 10 | > 10 | – | – |
| O=C(N1CC[C@@]2(S(=O)(=O)c3ccc(F)cc3)c3ccc(C(F)(C(F)(F)F)C(F)(F)F)cc3NC[C@@H]12)C1(O)CCS(=O)(=O)CC1 | – | – | – | 0.006 | > 40 | > 10 | > 10 | > 10 | > 10 | – | – |
| O=C(O)[C@H]1CC[C@H](C(=O)N2CC[C@@]3(S(=O)(=O)c4cccc(Cl)c4)c4ccc(C(F)(C(F)(F)F)C(F)(F)F)cc4CC[C@@H]23)CC1 | > 2 | > 2 | > 2 | – | > 40 | > 10 | > 10 | > 10 | > 10 | – | – |
| O=C(O)C12CC(C(=O)N3CC[C@@]4(S(=O)(=O)c5ccc(F)cc5)c5ccc(C(F)(C(F)(F)F)C(F)(F)F)cc5CC[C@@H]34)(C1)C2 | – | – | – | – | > 40 | > 10 | > 10 | > 10 | > 10 | – | – |
| O=C(O)[C@H]1CC[C@H](C(=O)N2CC[C@@]3(S(=O)(=O)c4ccc(Cl)cc4)c4ccc(C(F)(C(F)(F)F)C(F)(F)F)cc4CC[C@@H]23)CC1 | > 2 | > 2 | > 2 | – | > 40 | > 10 | > 10 | > 10 | > 10 | – | – |
| Cc1ccc(S(=O)(=O)[C@@]23CCN(C(=O)[C@H]4CC[C@H](C(=O)O)CC4)[C@@H]2CCc2cc(C(F)(C(F)(F)F)C(F)(F)F)ccc23)cc1 | 1.37 | 1.02 | > 2 | – | > 40 | > 10 | > 10 | > 10 | > 10 | – | – |
| CC(=O)N1CCC(C(=O)N2CC[C@@]3(S(=O)(=O)c4ccc(F)cc4)c4ccc(C(F)(C(F)(F)F)C(F)(F)F)cc4CC[C@@H]23)CC1 | 0.35 | 0.817 | 0.85 | – | > 40 | > 10 | > 10 | > 10 | > 10 | – | – |
